Experimental findings from US6403617B1, “Diaminopyridine-containing thiourea inhibitors of herpes viruses” (American Home Products Corp., priority 1998, dated 2002) are described below.

One test relates to VZV strain Ellen. The test is described as follows: VZV Antiviral (ELISA) Assay. Particulars: human foreskin fibroblast cells, three days; for inhibition at 10 µg/mL / IC50: Human alphaherpesvirus 3, 72 h; for inhibition at 10 µg/mL: read-out: % inhibition 10 ug/ml VZV; for IC50: read-out: IC50 (ug/ml) VZV. The format is cell-based, varicella-zoster virus. The procedure: For the generation of stock VZV to be used in the assay, VZV strain Ellen (ATCC #VR-1367) is used to infect human foreskin fibroblast (HFF) cells at low multiplicity (less than 0.1) and incubated overnight at 37° C. in 5% CO2. After the overnight incubation, the mixture of uninfected and VZV-infected HFF infected cells are then harvested and added to each well of 96-well plates (3.5×10^4 cells in 100 μl DMEM supplemented with 2% FBS) which contain test compound or the reference standard drug control (in 100 μl DMEM supplemented with 2% FBS per well). These cells are incubated for three days at 37° C. in 5% CO2, then fixed for ELISA assay. The primary antibody is murine anti-VZV glycoprotein II monoclonal antibody (Applied Biosystems, Inc. #13-145-100) and the secondary antibody is goat anti-mouse IgG linked to β-galactosidase. Thus the extent of viral replication is determined by assessing β-galactosidase activity by quantifying the generation of the 4-methyl umbelliferone fluorescent cleavage product after addition of the methyl umbelliferyl-β-D-galactoside (Sigma #M1633) substrate on a microfluorimeter (365 nm for excitation and 450 nm for emission). Antiviral activity (IC50) of the test compound is determined by comparing the flourescence obtained in absence of compound to that obtained in the presence of compound.

The test system of another test is HSV-1. The test is described as follows: HSV Antiviral (ELISA) Assay. The format is cell-based, herpes simplex virus type 1. The following applies: Vero cells, HSV-1, about 24 hours post-infection; for IC50: Human alphaherpesvirus 1, read-out: IC50 (ug/ml) HSV. The procedure: Vero cells (ATCC #CCL-81) are plated on 96-well tissue cultugre plates at 3.5×10^4 cells per 100 μl tissue culture DMEM (Dulbecco's modified Eagle media) supplemented with 2% fetal bovine serum (FBS) in each well. After overnight incubation @ 37° C. (in 5% CO2) and 30 minutes prior to infection with HSV-1 (multiplicity of infection equal to 0.006), cells are either untreated, or treated with test compound (multiple concentrations) or reference standard drug control. After approximately 24 hours post-infection incubation @ 37° C. (in 5% CO2), cells are fixed for ELISA assay. The primary antibody is murine anti-HSV glycoprotein D monoclonal primary antibody and the secondary antibody is goat anti-mouse IgG linked to β-galactosidase. Thus the extent of viral replication is determined by assessing β-galactosidase activity by quantifying the generation of the 4-methyl umbelliferone fluorescent cleavage product after addition of the methyl umbelliferyl-β-D-galactoside (Sigma #M1633) substrate on a microfluorimeter (365 nm for excitation and 450 nm for emission). Antiviral activity (IC50) of the test compound is determined by comparing the flourescence obtained in absence of compound to that obtained in the presence of compound.

In a further test the test system is HCMV wild-type. The test is described as follows: HCMV yield assay. The format is cell-based, Human Cytomegalovirus. Particulars: human foreskin fibroblasts, reduction of virus yield by 50%; for IC50: Human betaherpesvirus 5, Fibroblast, read-out: IC50 (ug/ml) HCMV. The procedure:
Yield assay. Monolayer cultures of human foreskin fibroblasts are infected with HCMV wild-type, typically at a multiplicity of infection equal to 0.2, in the presence of inhibitor compound (varying concentrations). At three days post-infection, total virus produced in these cultures (i.e. virus yield) is assessed by harvesting and titering the virus in 12-well plates of cultured human foreskin fibroblasts (done in the absence of inhibitor). Plaques are quantified at 2 weeks post-infection. An inhibitor of HCMV is identified by the reduction in titer of virus yield in the presence, compared to the titer in the absence of compound. In this assay, the relative anti-HCMV activity of an inhibitor is typically determined by calculating the IC50 or IC90 value, that is, the amount of compound required to reduce the virus yield by 50% or 90%, respectively. Table I describes IC50 data for compounds tested against HCMV.

Converted amounts (≈) assume the structure as drawn. Where only a bound is given, the exact number is not on record here.

With `COc1cc(OC)c(NC(=S)Nc2ccc(NC(=O)c3ccco3)cn2)cc1Cl` [Example 512, Furan-2-carboxylic acid {6-[3-(5-chloro-2,4-dimethoxy-phenyl)-thioureido]-pyridin-3-yl}-amide], the inhibition at 10 µg/mL with VZV strain Ellen (10 ug/ml) was 70%. For the same compound, the IC50 in the test with VZV strain Ellen came out at 4 µg/mL (≈ 9.24 µM); in the test on HSV-1 it was 0.5 µg/mL (≈ 1.16 µM); with HCMV wild-type it was 0.7 µg/mL (≈ 1.62 µM).

For `COc1cc(OC)c(NC(=S)Nc2ccc(NC(=O)c3csnn3)cn2)cc1Cl` [Example 514, [1,2,3]Thiadiazole-4-carboxylic acid {6-[3-(5-chloro-2,4-dimethoxy-phenyl)-thioureido]-pyridin-3-yl}-amide], in the test on VZV strain Ellen (10 ug/ml), the inhibition at 10 µg/mL stood at 62%. In addition, the IC50 is greater than 10 µg/mL in the test with VZV strain Ellen, 4 µg/mL (≈ 8.87 µM) in the test on HSV-1 and 1.2 µg/mL (≈ 2.66 µM) in the test with HCMV wild-type.

`O=C(Nc1ccc(NC(=S)Nc2cc(Cl)cc(Cl)c2)cn1)c1csnn1` [Example 515, [1,2,3]Thiadiazole-4-carboxylic acid {5-[3-(3,5-dichloro-phenyl)-thioureido]-pyridin-2-yl}-amide]: the inhibition at 10 µg/mL in the test on VZV strain Ellen (10 ug/ml) is 30%. The IC50 in the test with VZV strain Ellen, in the test with HSV-1 and in the test on HCMV wild-type was greater than 10 µg/mL throughout.

For the compound “Pyridine-2-carboxylic acid {6-[3-(5-chloro-2,4-dimethoxy-phenyl)-thioureido]-pyridin-3-yl}-amide [Example 506]”, the “% inhibition 10 ug/ml VZV” value with VZV strain Ellen (10 ug/ml) is 68%. In the test with VZV strain Ellen, the “IC50 (ug/ml) VZV” value is greater than 10 µg/mL. Besides, in the test on HSV-1, the “IC50 (ug/ml) HSV” value is greater than 10 µg/mL. The “IC50 (ug/ml) HCMV” value in the test with HCMV wild-type is greater than 10 µg/mL.
